Source: patent US20140005163A1 (NOVARTIS AG, priority 2010, published 2014)

Assays:
[1] = system: S6 Ribosomal Protein phosphorylation Ser235/236 in TSC1 null mouse embryo fibroblast (MEF) cells; experiment: Reverse protein array assay, S6 Ribosomal Protein phosphorylation Ser235/236 in TSC1 null MEF cells; assay type: cell-based; settings: 1 h, pS6 ribosomal protein Ser235/236, 60 minutes incubation, read-out: p-S6 IC50
Method in brief: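 TSC1−/− MEFs, seeded and held ≥20 h at 37 °C/5% CO2, were exposed to 8-step serial compound dilutions (0.02% DMSO final; DMSO vehicle control) for 60 min at 37 °C. Cells were then lysed on ice for 10 min and lysates spotted onto reverse protein array chips.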

[2] = system: PKB Ser473 phosphorylation in Rat1-myr-HA-p110 beta cells; experiment: Reverse protein array assay, PKB Ser473 phosphorylation in Rat1-myr-p110 beta cells; assay type: cell-based; settings: 0.5 h, pAkt Ser473, 30 minutes incubation, read-out: p-PKB IC50
Method in brief: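 Lysates were arrayed at four dilutions, and phospho-PKB Ser473 was quantified by relative fluorescence signal. They came from Rat1-myr-HA-p110 alpha, beta or delta cells exposed for 30 min at 37 °C to an 8-point compound series with 0.2% DMSO constant.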

PI3K beta = molecular target: T1, PI3K beta (Homo sapiens, UniProt P42338); experiment: PI3K beta kinase assay (Kinase-Glo luminescence); assay type: biochemical
T1 construct: for the full-length p110-b subunit are generated and fused by overlapping PCR; p85(iSH2) fusion partner (see partner chain) (N); His tag (C); made in house; host or cells: baculovirus; Tn5 (Trichoplusia ni) or TiniPro insect cells
Method in brief: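 p110β full-length/p85 iSH2 construct (BV-949), 25 nM, with 1 μM ATP and 10 μg/mL phosphatidylinositol in 10 mM Tris pH 7.5, 3 mM MgCl2, 50 mM NaCl, 0.05% CHAPS, 1 mM DTT. 60 min at room temperature; ATP remaining read by Kinase-Glo luminescence. IC50 from 8-point four-parameter logistic fit.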

T1 sequence (P42338 with tags, fused parts or gaps limits assumed): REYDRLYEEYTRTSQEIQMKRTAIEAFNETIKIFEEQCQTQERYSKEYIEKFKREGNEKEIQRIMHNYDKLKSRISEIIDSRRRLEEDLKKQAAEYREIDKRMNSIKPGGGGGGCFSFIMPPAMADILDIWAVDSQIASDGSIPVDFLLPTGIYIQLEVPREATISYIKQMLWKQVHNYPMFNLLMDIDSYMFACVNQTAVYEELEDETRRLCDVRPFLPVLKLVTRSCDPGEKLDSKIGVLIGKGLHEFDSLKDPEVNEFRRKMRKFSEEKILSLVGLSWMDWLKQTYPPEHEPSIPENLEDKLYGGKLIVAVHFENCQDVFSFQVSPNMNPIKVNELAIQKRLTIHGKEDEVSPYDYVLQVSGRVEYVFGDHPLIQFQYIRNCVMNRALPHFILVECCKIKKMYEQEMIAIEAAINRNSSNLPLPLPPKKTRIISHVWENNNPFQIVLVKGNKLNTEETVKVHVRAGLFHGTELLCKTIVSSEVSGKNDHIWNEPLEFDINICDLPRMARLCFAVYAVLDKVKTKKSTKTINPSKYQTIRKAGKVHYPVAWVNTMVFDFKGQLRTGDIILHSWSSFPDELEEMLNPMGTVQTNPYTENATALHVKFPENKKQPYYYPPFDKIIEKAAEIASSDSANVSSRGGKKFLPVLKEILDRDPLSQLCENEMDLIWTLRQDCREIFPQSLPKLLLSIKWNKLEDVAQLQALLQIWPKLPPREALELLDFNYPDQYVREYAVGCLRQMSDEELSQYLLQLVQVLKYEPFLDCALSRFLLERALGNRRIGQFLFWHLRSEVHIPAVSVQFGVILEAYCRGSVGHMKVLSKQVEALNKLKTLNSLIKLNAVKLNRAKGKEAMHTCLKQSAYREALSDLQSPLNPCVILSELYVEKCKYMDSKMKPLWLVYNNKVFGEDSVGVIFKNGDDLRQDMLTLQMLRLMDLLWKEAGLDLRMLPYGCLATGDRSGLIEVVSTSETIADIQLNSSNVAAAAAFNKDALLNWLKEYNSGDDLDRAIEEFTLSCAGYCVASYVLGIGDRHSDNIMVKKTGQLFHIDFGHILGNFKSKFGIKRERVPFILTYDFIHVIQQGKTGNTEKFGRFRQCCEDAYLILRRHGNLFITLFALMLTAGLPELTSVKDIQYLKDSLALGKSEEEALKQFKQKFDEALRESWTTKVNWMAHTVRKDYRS

IC50 [2]	IC50 (PI3K beta)	Structure (SMILES)	IC50 [1]
30 nM	101 nM	COc1ccc(-c2ccc3ncc4c(c3c2)n(-c2cn(CCO)nc2C)c(=O)n4C)cn1 [Example 103.1, 1-[1-(2-Hydroxy-ethyl)-3-methyl-1H-pyrazol-4-yl]-8-(6-methoxy-pyridin-3-yl)-3-methyl-1,3-dihydro-imidazo[4,5-c]quinolin-2-one]	13 nM
29 nM	6 nM	CCOc1cncc(-c2ccc3ncc4c(c3c2)n(-c2cn(C)nc2C)c(=O)n4C)c1 [Example 56.1, 1-(1,3-Dimethyl-1H-pyrazol-4-yl)-8-(5-ethoxy-pyridin-3-yl)-3-methyl-1,3-dihydro-imidazo[4,5-c]quinolin-2-one]	4 nM
692 nM	559 nM	Cc1nn(CCO)cc1-n1c(=O)n(C)c2cnc3ccc(-c4cncc(N5CCOCC5)c4)cc3c21 [Example 175.3, 1-[1-(2-Hydroxy-ethyl)-3-methyl-1H-pyrazol-4-yl]-3-methyl-8-(5-morpholin-4-yl-pyridin-3-yl)-1,3-dihydro-imidazo[4,5-c]quinolin-2-one]	151 nM
265 nM	89 nM	COCCOc1cncc(-c2ccc3ncc4c(c3c2)n(-c2cn(C)nc2C)c(=O)n4C)c1 [Example 59.1, 1-(1,3-Dimethyl-1H-pyrazol-4-yl)-8-[5-(2-methoxy-ethoxy)-pyridin-3-yl]-3-methyl-1,3-dihydro-imidazo[4,5-c]quinolin-2-one]	6 nM
7 nM	41 nM	Cc1nn(C)cc1-n1c(=O)n(C)c2cnc3ccc(-c4ccc(N)nc4)cc3c21 [Example 23.1, 8-(6-Amino-pyridin-3-yl)-1-(1,3-dimethyl-1H-pyrazol-4-yl)-3-methyl-1,3-dihydro-imidazo[4,5-c]quinolin-2-one]	4 nM
6 nM	197 nM	Cc1nn(C(C)C)cc1-n1c(=O)n(C)c2cnc3ccc(-c4ccc(N)nc4)cc3c21 [Example 23.2, 8-(6-Amino-pyridin-3-yl)-1-(1-isopropyl-3-methyl-1H-pyrazol-4-yl)-3-methyl-1,3-dihydro-imidazo[4,5-c]quinolin-2-one]	2 nM
295 nM	281 nM	Cc1nn(C)c(C)c1-n1c(=O)n(C)c2cnc3ccc(-c4cnc(N)nc4)cc3c21 [Example 81.2, 8-(2-Amino-pyrimidin-5-yl)-3-methyl-1-(1,3,5-trimethyl-1H-pyrazol-4-yl)-1,3-dihydro-imidazo[4,5-c]quinolin-2-one]	19 nM
14 nM	332 nM	CCOc1ccc(-c2ccc3ncc4c(c3c2)n(-c2cn(CCO)nc2C)c(=O)n4C)cn1 [Example 103.2, 8-(6-Ethoxy-pyridin-3-yl)-1-[1-(2-hydroxy-ethyl)-3-methyl-1H-pyrazol-4-yl]-3-methyl-1,3-dihydro-imidazo[4,5-c]quinolin-2-one]	3 nM
45 nM	47 nM	CCOc1cc(-c2ccc3ncc4c(c3c2)n(-c2cn(C)nc2C)c(=O)n4C)cnc1CO [Example 243, 1-(1,3-Dimethyl-1H-pyrazol-4-yl)-8-(5-ethoxy-6-hydroxymethyl-pyridin-3-yl)-3-methyl-1,3-dihydro-imidazo[4,5-c]quinolin-2-one]	4 nM
386 nM	188 nM	COCCOc1cc(-c2ccc3ncc4c(c3c2)n(-c2cn(C)nc2C)c(=O)n4C)cnc1CO [Example 244, 1-(1,3-Dimethyl-1H-pyrazol-4-yl)-8-[6-hydroxymethyl-5-(2-methoxy-ethoxy)-pyridin-3-yl]-3-methyl-1,3-dihydro-imidazo[4,5-c]quinolin-2-one]	25 nM
22 nM	37 nM	COc1ncc(-c2ccc3ncc4c(c3c2)n(-c2cn(C)nc2Cl)c(=O)n4C)cn1 [Example 17.3, 1-(3-Chloro-1-methyl-1H-pyrazol-4-yl)-8-(2-methoxy-pyrimidin-5-yl)-3-methyl-1,3-dihydro-imidazo[4,5-c]quinolin-2-one]	3 nM
80 nM	47 nM	Cc1nn(C)cc1-n1c(=O)n(C)c2cnc3ccc(-c4cncc(N)c4)cc3c21 [Example 45.1, 8-(5-Amino-pyridin-3-yl)-1-(1,3-dimethyl-1H-pyrazol-4-yl)-3-methyl-1,3-dihydro-imidazo[4,5-c]quinolin-2-one]	43.5 nM
94 nM	13 nM	COC(C)(C)c1cncc(-c2ccc3ncc4c(c3c2)n(-c2cn(C)nc2C)c(=O)n4C)c1 [Example 239, 1-(1,3-Dimethyl-1H-pyrazol-4-yl)-8-[5-(1-methoxy-1-methyl-ethyl)-pyridin-3-yl]-3-methyl-1,3-dihydro-imidazo[4,5-c]quinolin-2-one]	1 nM
9 nM	45 nM	CNc1ncc(-c2ccc3ncc4c(c3c2)n(-c2cn(C)nc2C)c(=O)n4C)cc1Cl [Example 146.1, 8-(5-Chloro-6-methylamino-pyridin-3-yl)-1-(1,3-dimethyl-1H-pyrazol-4-yl)-3-methyl-1,3-dihydro-imidazo[4,5-c]quinolin-2-one]	< 0.5 nM
8 nM	100 nM	CNc1cc(-c2ccc3ncc4c(c3c2)n(-c2cn(C)nc2C)c(=O)n4C)cnc1COC [Example 159, 1-(1,3-Dimethyl-1H-pyrazol-4-yl)-8-(6-methoxymethyl-5-methylamino-pyridin-3-yl)-3-methyl-1,3-dihydro-imidazo[4,5-c]quinolin-2-one]	8 nM
66 nM	68 nM	Cc1nn(C(C)C)cc1-n1c(=O)n(C)c2cnc3ccc(-c4cnc(F)c(N)c4)cc3c21 [Example 149.1, 8-(5-Amino-6-fluoro-pyridin-3-yl)-1-(1-isopropyl-3-methyl-1H-pyrazol-4-yl)-3-methyl-1,3-dihydro-imidazo[4,5-c]quinolin-2-one]	9 nM
139 nM	29 nM	CCn1cc(-n2c(=O)n(C)c3cnc4ccc(-c5cncc(OC(C)C)c5)cc4c32)c(C)n1 [Example 58.4, 1-(1-Ethyl-3-methyl-1H-pyrazol-4-yl)-8-(5-isopropoxy-pyridin-3-yl)-3-methyl-1,3-dihydro-imidazo[4,5-c]quinolin-2-one]	2 nM
57 nM	120 nM	CCn1cc(-n2c(=O)n(C)c3cnc4ccc(-c5cnc(OC)nc5)cc4c32)c(C)n1 [Example 17.1, 1-(1-Ethyl-3-methyl-1H-pyrazol-4-yl)-8-(2-methoxy-pyrimidin-5-yl)-3-methyl-1,3-dihydro-imidazo[4,5-c]quinolin-2-one]	87 nM
< 5 nM	16 nM	CNc1ncc(-c2ccc3ncc4c(c3c2)n(-c2cn(C)nc2C)c(=O)n4C)cc1C(F)(F)F [Example 144.3, 1-(1,3-Dimethyl-1H-pyrazol-4-yl)-3-methyl-8-(6-methylamino-5-trifluoromethyl-pyridin-3-yl)-1,3-dihydro-imidazo[4,5-c]quinolin-2-one]	< 0.5 nM
52 nM	4 nM	Cc1nn(C)cc1-n1c(=O)n(C)c2cnc3ccc(-c4cncc(OC(F)F)c4)cc3c21 [Example 183, 8-(5-Difluoromethoxy-pyridin-3-yl)-1-(1,3-dimethyl-1H-pyrazol-4-yl)-3-methyl-1,3-dihydro-imidazo[4,5-c]quinolin-2-one]	1 nM
47 nM	185 nM	Cc1nn(C)cc1-n1c(=O)n(C)c2cnc3ccc(-c4cnc(N(C)C)nc4)cc3c21 [Example 6.2, 8-(2-Dimethylamino-pyrimidin-5-yl)-1-(1,3-dimethyl-1H-pyrazol-4-yl)-3-methyl-1,3-dihydro-imidazo[4,5-c]quinolin-2-one]	8 nM
725 nM	165 nM	Cc1nn(C)c(C)c1-n1c(=O)n(C)c2cnc3ccc(-c4cccc(O)c4)cc3c21 [Example 32.2, 8-(3-Hydroxy-phenyl)-3-methyl-1-(1,3,5-trimethyl-1H-pyrazol-4-yl)-1,3-dihydro-imidazo[4,5-c]quinolin-2-one]	558 nM
39 nM	404 nM	Cc1nn(C(C)C)cc1-n1c(=O)n(C)c2cnc3ccc(-c4ccc(CO)nc4)cc3c21 [Example 16.3, 8-(6-hydroxymethyl-pyridin-3-yl)-1-(1-isopropyl-3-methyl-1H-pyrazol-4-yl)-3-methyl-1,3-dihydro-imidazo[4,5-c]quinolin-2-one]	61 nM
20 nM	24 nM	COc1ccc(-c2ccc3ncc4[nH]c(=O)n(-c5cc(C)nn5C)c4c3n2)cc1OC [Example 252, 8-(3,4-Dimethoxy-phenyl)-1-(2,5-dimethyl-2H-pyrazol-3-yl)-1,3-dihydro-1,3,5,9-tetraaza-cyclopenta[a]naphthalen-2-one]	5 nM
40 nM	206 nM	COc1ncc(-c2ccc3ncc4c(c3c2)n(-c2cn(C)nc2C)c(=O)n4C)cn1 [Example 17.2, 1-(1,3-Dimethyl-1H-pyrazol-4-yl)-8-(2-methoxy-pyrimidin-5-yl)-3-methyl-1,3-dihydro-imidazo[4,5-c]quinolin-2-one]	33 nM
